In ChEMBL document CHEMBL3880396, “Calcium channel inhibitors comprising benzhydril spaced from piperazine” (2004):

Key:
[1] = Selectivity ratio of IC50 for alpha1A/alpha2delta/beta1b P/Q-type calcium channel (unknown origin) to IC50 for rat brain […] N-type calcium channel
[2] = Selectivity ratio of IC50 for alpha1C/alpha2delta/beta1b L-type calcium channel (unknown origin) to IC50 for rat brain […] N-type calcium channel

Row | Ratio IC50 [1] | Ratio IC50 [2] | Compound
1 | 9.4 | 103 | O=C(O)C1CN(C(c2ccccc2)c2ccccc2)CCN1C(=O)CC(c1ccccc1)c1ccccc1 (configuration not stated)
2 | > 40 | > 40 | CC(C)(C)c1cc(C(c2ccccc2)N2CCN(C(=O)CC(c3ccccc3)c3ccccc3)CC2)cc(C(C)(C)C)c1O (configuration not stated)
3 | 5.1 | 103 | O=C(CC(c1ccccc1)c1ccccc1)N1CCN(C(c2ccccc2)c2ccc(C(F)(F)F)cc2)CC1 (configuration not stated)
4 | 28 | 831 | O=C(CC(c1ccccc1)c1ccccc1)N1CCN(C(c2ccccc2)c2ccc(Cl)cc2)CC1 (configuration not stated)
5 | 69 | 2880 | CCOC(=O)C1CN(C(c2ccccc2)c2ccccc2)CCN1C(=O)CC(c1ccccc1)c1ccccc1 (configuration not stated)
6 | 41 | > 54 | COc1ccc(C(c2ccc(C(F)(F)F)cc2)N2CCN(C(=O)CC(c3ccccc3)c3ccccc3)CC2)cc1 (configuration not stated)
